Experimental data reported in patent US9803220B2, “Production of alkenes from 3-hydroxy-1-carboxylic acids via 3-sulfonyloxy-1-carboxylic acids” (Scientist of Fortune S.A., priority 2012, dated 2017).

Columns and labels:
[1] = Thermal conversion of 3-sulfonyloxybutyrate to propylene, headspace GC-FID; format: physicochemical; conditions: 50 mM substrate, 50 mM Tris-HCl pH 7.5, 0 to 90 h
Protocol: The thermal conversion assays containing, in a total volume of 0.5 mL, 50 mM 3-sulfonyloxybutyrate and 50 mM Tris-HCl pH 7.5, were incubated in 2 ml sealed glass vials (Interchim) at 37° C. and 65° C. with shaking. Propylene production at different incubation times (from 0 to 90 h) was analyzed as follows. One ml of the gaseous phase was collected and injected into a gas chromatograph Varian 430-GC equipped with FID detector. Nitrogene was used as carrier gas with a flow rate of 1.5 ml/min. Volatile compounds were separated on RT-Alumina Bond/Na2SO4 column (Restek) using an isothermal mode at 130° C. Gaseous product of thermal decomposition of disodium (R,S)-3-sulfonyloxybutyrate was identified by comparison with propylene standard (Sigma, Aldrich). Under these GC conditions, the retention time for propylene was 3.2 min. […] (FIGS. 6 and 7).

[2] = system: sulfotransferase CurM (PKS ST); test: Sulfotransferase activity assay, sulfurylation of 3-hydroxybutyrate with PAPS, MS detection; format: biochemical, Moorea producens (formerly Lyngbya majuscala) 19L; conditions: 5 mM (R,S)-3-hydroxybutyrate, 5 mM PAPS, 5 mg/ml enzyme, 1.5 hours at 37° C., pH 7.5
Source text: Sequence of sulfotransferase domain of polyketide synthase CurM (PKS ST) inferred from the genome of Moorea producens (formerly Lyngbya majuscala) 19L was generated by oligonucleotide concatenation to fit the codon usage of E. coli. A stretch of 6 histidine codons was inserted after the methionine initiation codon to provide an affinity tag for purification. The gene thus synthesized was cloned in a pET25b(+) expression vector (the vectors were constructed by GENEART AG). After transformation of the E. coli strain BL21 (DE3), the protein was produced according to the procedure described in Example 1 and sulfotransferase activity was assayed under the following conditions
5 mM (R,S)-3-hydroxybutyrate
5 mg/ml purified sulfotransferase (ST) CurM.
Control reaction was performed using the same reaction mixture without addition of the enzyme. The assays were incubated for 1.5 hours at 37° C. An aliquot of 200 μl of each assay was then removed, filtered through a 0.45 μm filter and the filtrated solution was transferred into a clean vial. MS analyses were performed in negative electrospray mode by direct injection of sample using PE SCIEX API 2000 quadrupole instrument. The presence of 3-sulfonyloxybutyrate was evaluated. […] The peak at m/z=182.8 was assigned to mono-deprotonated form of 3-sulfonyloxybutyrate, [M-H]^−. […]

propylene production by thermal conversion ([1]; 37° C.)	propylene production by thermal conversion ([1]; 37° C., listed as sulfonylbutyrate)	propylene production by thermal conversion ([1]; 65° C.)	transfer of the sulfate group from PAPS onto hydroxyl group (formation of 3-sulfonyloxybutyrate) [2]	SMILES
Significant production of propylene	already occurs	Significant production of propylene	–	CC(CC(=O)[O-])OS(=O)(=O)[O-].[Na+].[Na+] (racemic) [disodium (R,S)-3-sulfonyloxybutyrate, Disodium (R,S)-3-sulfonyloxybutyrate]
–	–	–	catalyzes transfer of the sulfate group	CC(O)CC(=O)O (stereo not shown) [3-hydroxybutyrate]
